# Assay results published in US11083709B2, “Compounds, compositions, and methods of increasing CFTR activity” (Proteostasis Therapeutics, Inc., priority 2015, dated 2021).
# Target: T1, ΔF508-CFTR (Homo sapiens, UniProt P13569, DEL508-508)
# T1 construct: primary lung epithelial cells (hBEs) homozygous for the Cystic Fibrosis-causing ΔF508 mutation; endogenous in cells; host or cells: primary lung epithelial cells (hBEs) homozygous for ΔF508
# Assay: Ussing measurements, hBEs homozygous for ΔF508
# Assay type: cell-based
# Conditions: compound at 10 uM and VX-809 at 3 uM, relative to VX-809 (3 uM); 24 h treatment
# Method: As discussed above, Ussing measurements can be used to measure CFTR activity. In this example, primary lung epithelial cells (hBEs) homozygous for the Cystic Fibrosis-causing ΔF508 mutation were differentiated for a minimum of 4 weeks in an air-liquid interface on SnapWell filter plates prior to the Ussing measurements. Cells were apically mucus-washed for 30 minutes prior to treatment with compounds. The basolateral media was removed and replaced with media containing the compound of interest diluted to its final concentration from DMSO stocks. Treated cells were incubated at 37° C. and 5% CO2 for 24 hours. […] The short-circuit current was measured in voltage clamp-mode (Vhold=0 mV), and the entire assay was conducted at a temperature of 36° C.-36.5° C. Once the voltages stabilized, the chambers were clamped, and data was recorded by pulse readings every 5 seconds. Following baseline current stabilization, the following additions were applied and the changes in current and resistance of the cells was monitored: • 1. […]
# The inhibitable current (that current that is blocked by CFTRinh-172) is measured as the specific activity of the ΔF508-CFTR channel, and increases in response to compound in this activity over that observed in vehicle-treated samples are identified as the correction of ΔF508-CFTR function imparted by the compound tested. […]
# T1 sequence (P13569 with tags, fused parts or gaps DEL508-508): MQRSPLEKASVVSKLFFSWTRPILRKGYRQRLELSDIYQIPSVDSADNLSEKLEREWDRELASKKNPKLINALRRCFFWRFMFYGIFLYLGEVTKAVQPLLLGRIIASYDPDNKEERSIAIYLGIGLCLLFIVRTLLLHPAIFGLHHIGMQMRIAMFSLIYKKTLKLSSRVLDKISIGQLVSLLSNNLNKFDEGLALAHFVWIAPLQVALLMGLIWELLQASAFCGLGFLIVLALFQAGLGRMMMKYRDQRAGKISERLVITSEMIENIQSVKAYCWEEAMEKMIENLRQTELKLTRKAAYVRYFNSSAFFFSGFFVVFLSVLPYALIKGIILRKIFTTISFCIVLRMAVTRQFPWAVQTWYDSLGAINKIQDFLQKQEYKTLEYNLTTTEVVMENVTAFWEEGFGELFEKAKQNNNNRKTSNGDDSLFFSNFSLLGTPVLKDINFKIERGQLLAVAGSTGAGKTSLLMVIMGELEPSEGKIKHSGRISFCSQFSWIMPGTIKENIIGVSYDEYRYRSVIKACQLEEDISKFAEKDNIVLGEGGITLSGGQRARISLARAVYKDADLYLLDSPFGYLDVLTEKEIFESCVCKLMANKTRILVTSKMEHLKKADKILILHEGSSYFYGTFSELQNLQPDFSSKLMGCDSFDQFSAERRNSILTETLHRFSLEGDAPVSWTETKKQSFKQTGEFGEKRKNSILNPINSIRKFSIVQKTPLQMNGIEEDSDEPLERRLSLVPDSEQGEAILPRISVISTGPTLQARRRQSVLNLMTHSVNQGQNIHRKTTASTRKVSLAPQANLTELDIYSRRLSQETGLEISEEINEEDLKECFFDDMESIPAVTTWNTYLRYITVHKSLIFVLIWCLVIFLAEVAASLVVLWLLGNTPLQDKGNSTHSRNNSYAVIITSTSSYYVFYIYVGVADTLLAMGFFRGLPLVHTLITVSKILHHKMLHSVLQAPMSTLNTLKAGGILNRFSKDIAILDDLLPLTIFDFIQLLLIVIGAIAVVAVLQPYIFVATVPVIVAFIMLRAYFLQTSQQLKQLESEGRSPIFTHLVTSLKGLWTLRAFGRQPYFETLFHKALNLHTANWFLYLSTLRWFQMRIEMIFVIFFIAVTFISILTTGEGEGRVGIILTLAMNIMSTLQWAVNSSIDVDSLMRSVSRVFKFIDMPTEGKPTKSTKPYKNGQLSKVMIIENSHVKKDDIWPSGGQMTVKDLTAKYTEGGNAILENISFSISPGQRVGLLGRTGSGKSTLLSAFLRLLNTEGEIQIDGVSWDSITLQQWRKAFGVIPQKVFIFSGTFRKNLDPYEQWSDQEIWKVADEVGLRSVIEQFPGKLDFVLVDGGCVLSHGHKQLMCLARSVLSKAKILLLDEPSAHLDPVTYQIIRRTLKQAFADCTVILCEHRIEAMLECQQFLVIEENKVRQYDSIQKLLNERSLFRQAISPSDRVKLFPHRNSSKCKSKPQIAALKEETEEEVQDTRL
structure (smiles),measurement,value
"O=C(N[C@H]1C[C@H](n2nncc2CO)C1)c1cc(-c2ccccc2)no1 [Example 5, N-(trans-3-(5-(hydroxymethyl)-1H-1,2,3-triazol-1-yl)cyclobutyl)-3-phenylisoxazole-5-carboxamide]","Ussing: activity of compound with VX-809, % of VX-809",## (## indicates activity ≥200% of VX-809 (3 uM) with compound at 10 uM and VX-809 at 3 uM)
